Experimental data published in US11312758B2, “Peptides with vasodilatory and/or diuretic functions” (National University of Singapore, priority 2016, dated 2022).
Values joined by “and” are separate entries in the source; they are usually repeats but may differ in a detail not shown here. Identical values can stand only once. Positions of bridges follow the written chain, without caps; N, C: chain ends. Residues, ends and D or L forms follow the SMILES beside them.

Columns and labels:
rat NPR-A [1] = target: T1, rat NPR-A (Rattus norvegicus, UniProt P18910); test: Whole cell cGMP assay, 30 min end-point dose-response in CHO-K1 cells transiently expressing NPR-A; format: cell-based
T1 construct: expressed in transfected cells; host or cells: CHO-K1
T1 sequence (P18910 29-1057): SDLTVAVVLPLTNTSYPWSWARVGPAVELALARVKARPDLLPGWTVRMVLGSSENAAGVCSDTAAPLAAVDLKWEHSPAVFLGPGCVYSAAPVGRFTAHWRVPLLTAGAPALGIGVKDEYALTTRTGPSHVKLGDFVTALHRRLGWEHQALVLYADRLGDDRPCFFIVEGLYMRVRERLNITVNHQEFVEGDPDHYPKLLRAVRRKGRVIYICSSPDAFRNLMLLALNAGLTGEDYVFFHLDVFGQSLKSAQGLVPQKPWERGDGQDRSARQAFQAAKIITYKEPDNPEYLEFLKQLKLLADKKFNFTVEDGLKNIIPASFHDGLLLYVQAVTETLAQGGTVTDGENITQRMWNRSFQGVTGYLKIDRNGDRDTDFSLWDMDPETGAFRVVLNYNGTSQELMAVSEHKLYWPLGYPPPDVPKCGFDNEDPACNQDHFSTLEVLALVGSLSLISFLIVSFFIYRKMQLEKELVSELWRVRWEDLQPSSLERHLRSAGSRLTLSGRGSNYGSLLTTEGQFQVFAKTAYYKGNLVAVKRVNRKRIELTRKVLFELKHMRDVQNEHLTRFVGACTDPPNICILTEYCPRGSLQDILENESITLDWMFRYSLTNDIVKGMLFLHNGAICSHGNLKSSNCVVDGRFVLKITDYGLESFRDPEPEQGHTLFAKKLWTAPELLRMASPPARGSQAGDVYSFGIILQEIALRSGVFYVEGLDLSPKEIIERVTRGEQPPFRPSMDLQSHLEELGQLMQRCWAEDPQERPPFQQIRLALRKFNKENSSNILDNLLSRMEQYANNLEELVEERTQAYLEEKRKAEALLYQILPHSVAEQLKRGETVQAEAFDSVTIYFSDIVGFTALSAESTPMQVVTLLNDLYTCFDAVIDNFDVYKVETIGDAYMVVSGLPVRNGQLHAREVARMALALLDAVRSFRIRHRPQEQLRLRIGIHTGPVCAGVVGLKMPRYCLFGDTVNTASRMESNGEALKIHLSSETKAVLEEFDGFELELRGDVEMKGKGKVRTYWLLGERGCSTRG
Procedure: (§1) The experiments were performed as described in Sridharan et al., [Biochem J 469 (2): 255-66 (2015)]. Dulbecco's modified Eagle's medium supplemented with 10% fetal bovine serum, 100 U/ml penicillin and 100 μg/ml streptomycin and 2 mM glutamine was used to grow CHO-K1 cells in a humidified incubator at 37° C. with 5% CO2. The cells were maintained by sub-culturing using 0.5% trypsin every three days. Cells (1×10^5) were seeded per well in 24-well plate and grown for 16 h. Cells in each well were transfected with 0.8 μg of plasmid encoding rat NPR-A using 2 μl of Lipofectamine™ 2000 transfection reagent. Cells were treated with the peptides 24 h after transfection.
NPR-A transfected CHO-K1 cells were treated with varying concentrations of peptides (10 nM to 10 μM dissolved in basal media containing 0.5 mM IBMX) for 30 min. The end-point accumulation of cGMP was measured after cell-lysis with 200 μl of 0.1 N HCl using Enzo life sciences cGMP ELISA kit (manufacturer's protocol).

[2] = tested on: anesthetized male SD rats; test: In-vivo activity assay: peptide infusion in anesthetized rats (MAP, HR, PP, urine flow); design: species or system rat
Procedure: Male Sprague-Dawley (SD) rats (220-280 g) were obtained from Invivos, Singapore. Animals were acclimatized in the Animal Holding unit, NUS for 3 days before the experiment. The experiments were conducted under the guidance and approval of Institutional Animal Care and Use Committee, NUS (041/12).
The experiments were performed as described in Sridharan et al., [Biochem J 469 (2): 255-66 (2015)]. In brief, animals were anesthetized with sodium pentobarbital (60-70 mg/kg) and catheters were inserted in femoral artery, vein and urinary bladder. The body temperature of the animals was maintained using a thermostatic heat pad at 37° C. Continuous infusions (2 ml/h) of 0.2% BSA saline (with or without peptide) was administered through the femoral vein while a pressure transducer attached to the femoral artery recorded on-line changes in mean arterial pressure (MAP), heart rate (HR) and pulse pressure (PP). Urine was collected and the volume was measured after every 10 min. Experiments encompassed control (2×10 min), experimental (1×10 min) and recovery (4×10 min) periods. All animals were euthanized at the end of the experiment in carbon-di-oxide chambers.

rat NPR-A [3] = target: T1, rat NPR-A; test: Time-chase study of cGMP accumulation (NPR-A activation kinetics) at EC50 concentration of peptide; format: cell-based
Procedure: as §1
Time-chase study was performed by treating the cells with EC50 concentration of the peptides. The reactions were terminated at the indicated time-points (0, 2, 5, 10, 20 and 30 min) by treating the cells with 0.1 N HCl. The cGMP concentration in the cell lysate was measured using cGMP ELISA kit (Enzo life sciences).

CC[C@H](C)[C@@H]1NC(=O)[C@H](CCCNC(=N)N)NC(=O)[C@H](CC(=O)O)NC(=O)[C@H](CCSC)NC(=O)[C@H](CCCNC(=N)N)NC(=O)CNC(=O)[C@H](CC(=O)O)NC(=O)[C@H](Cc2ccccc2)NC(=O)[C@@H](NC(=O)[C@H](CO)NC(=O)[C@H](CO)NC(=O)[C@H](CCCNC(=N)N)NC(=O)[C@H](CCCNC(=N)N)NC(=O)[C@H](CC(C)C)NC(=O)[C@@H](N)CO)CSSC[C@@H](C(=O)N[C@@H](CC(N)=O)C(=O)N[C@@H](CO)C(=O)N[C@@H](Cc2ccccc2)C(=O)N[C@@H](CCCNC(=N)N)C(=O)N[C@@H](Cc2ccc(O)cc2)C(=O)O)NC(=O)CNC(=O)[C@H](CC(C)C)NC(=O)[C@H](CC(=O)O)NC(=O)[C@H](CO)NC(=O)[C@H](CCC(N)=O)NC(=O)[C@H](C)NC(=O)CNC1=O [^DGDANP] (H-SLRRSSCFDGRMDRIGAQSDLGCNSFRY-OH; disulfide 7-23; N-terminus assumed)
NPR-A activation potency, Ratio compared ANP (rat NPR-A [1]): 7.8 | fold drop in activity compared to ANP (rat NPR-A [1]; cGMP response): 8 fold | NPR-A activation potency, Ratio compared wild type NPs (rat NPR-A [1]; negative = more potent than wild type): 7.8 | HR Rate of change per unit change in MAP ([2]; 2 nmol/kg/min infusion): 4.4 | PP Rate of change per unit change in MAP ([2]; 2 nmol/kg/min infusion): 0.5 | delay of the peak of diuresis ([2]; 2 nmol/kg/min infusion): 10 min | Mean arterial pressure Peak response ([2]; 2.0 nmol/kg/min infusion): −4.8±2.3 mmHg and −4.8 ± 2.9 mmHg | Urine flow rate Peak Time ([2]; 2.0 nmol/kg/min infusion): 30 min | Urine flow rate Peak response ([2]; 2.0 nmol/kg/min infusion): 7.9 ± 2.1 µL/min and 7.9 ± 2.0 µL/min | Rate of generation of cGMP, Ratio compared ANP (rat NPR-A [3]): 56.9 | Rate of generation of cGMP, Ratio compared wild type NPs (rat NPR-A [3]): 56.9 | times slower activation kinetics compared to the wild type (ANP) (rat NPR-A [3]): 7.8 times | Rate of generation of cGMP (rat NPR-A [3]; EC50 concentration of peptide): 0.14 pmol cGMP/pmol peptide | time of peak / maximum accumulation of cGMP (rat NPR-A [3]; EC50 concentration of peptide): 10 min
